Molecules are shown by their SMILES. Several values for one entry are separate records, joined by “and”; a condition that tells them apart may be missing. Equal values may be shown once.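 Cells were grown in 96-well plates and exposed to each compound for 48 hours at five concentrations; endpoints were interpolated linearly between bracketing concentrations, or set to the highest concentration if not reached. GI50: concentration for 50% inhibition of growth. Definition used: TGI = concentration required for complete inhibition of growth.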 A value given as a limit tells only on which side of the number the result lay.

Test systems include DU-145 prostate; MDA-MB-435; NCI/ADR-RES ovarian; BT-549 breast; HS 578T breast; T-47D breast.
Experiment in all cases: NCI tumour cell line growth inhibition, 48 h

Regarding `Nc1ncn([C@@H]2S[C@H](CO)[C@@H](O)[C@@H]2F)c(=O)n1`, the GI50 in the assay with DU-145 prostate was 0.508 µM; with MDA-MB-435, 0.692 µM; in the assay on NCI/ADR-RES ovarian it was 0.285 µM; in the assay on BT-549 breast, 54.7 µM; in the assay with HS 578T breast it was above 100 µM; in the assay with T-47D breast, above 100 µM. Moreover, the TGI in the assay on DU-145 prostate, with MDA-MB-435, in the assay on NCI/ADR-RES ovarian, in the assay with BT-549 breast, in the assay with HS 578T breast and in the assay with T-47D breast was above 100 µM throughout.

In the case of `Cn1ncc(-c2ccc3c(=O)[nH]nc(CN)c3c2)c1-c1c(F)c(Cl)cc(OC2CC2)c1C#N`, the GI50 is 16.9 µM and 14.4 µM in the assay on DU-145 prostate; 11.9 µM and 10.7 µM in the assay with MDA-MB-435; 35 µM and 25.5 µM with NCI/ADR-RES ovarian; 14.9 µM and 14.3 µM in the assay with BT-549 breast; 12.4 µM and 11 µM in the assay on HS 578T breast; 12.3 µM and 6.06 µM in the assay with T-47D breast. Further, the TGI is 32.2 µM and 28.1 µM in the assay with DU-145 prostate; 24.7 µM and 22.9 µM in the assay with MDA-MB-435; above 100 µM in the assay on NCI/ADR-RES ovarian; 30.2 µM and 28.6 µM with BT-549 breast; 33.8 µM and 29.9 µM in the assay with HS 578T breast; 36.5 µM and 28.4 µM in the assay on T-47D breast.

For the compound `FC(F)(F)c1cccc(-c2nc3nc(Cl)c(Cl)nc3[nH]2)c1`, the TGI in the assay with DU-145 prostate is above 100 µM; in the assay on MDA-MB-435, 13 µM; with NCI/ADR-RES ovarian, above 100 µM; in the assay with BT-549 breast it was 51.8 µM; with HS 578T breast, 17.8 µM; in the assay on T-47D breast, 12.9 µM.

For the compound `CCc1c2c(nc3ccc(OCc4ccc(B(O)O)cc4)cc13)-c1cc3c(c(=O)n1C2)COC(=O)[C@]3(O)CC`, the GI50 in the assay on DU-145 prostate is below 0.0158 µM; with MDA-MB-435 it was 0.076 µM; in the assay on NCI/ADR-RES ovarian, 0.0766 µM; in the assay on BT-549 breast, 0.0432 µM; in the assay on HS 578T breast, 0.752 µM; in the assay with T-47D breast it was below 0.01 µM. The TGI in the assay on DU-145 prostate is 6.05 µM; in the assay on MDA-MB-435 it was 3.5 µM; with BT-549 breast it was above 26.5 µM; in the assay with HS 578T breast, above 100 µM; in the assay on T-47D breast it was above 21.1 µM.

As to `CN(C)c1cc2ccccc2oc1=O`, the TGI in the assay on DU-145 prostate, in the assay on MDA-MB-435, with NCI/ADR-RES ovarian, in the assay with BT-549 breast, in the assay with HS 578T breast and with T-47D breast was above 100 µM in each case.

For the compound `c1ccc(NN(Cc2cnccn2)c2ccccc2)cc1`, the TGI with DU-145 prostate, in the assay on MDA-MB-435, in the assay on NCI/ADR-RES ovarian, in the assay with BT-549 breast, in the assay on HS 578T breast and in the assay with T-47D breast was above 100 µM each time.

Consider `Nc1nc2ccc(-c3nc4ccc5[nH]ncc5c4c4c3CCC4)cc2s1`, for which the GI50 was 0.787 µM in the assay on DU-145 prostate; 0.0673 µM in the assay with MDA-MB-435; 0.302 µM in the assay on NCI/ADR-RES ovarian; 0.365 µM with BT-549 breast; 0.189 µM in the assay on HS 578T breast; 0.408 µM in the assay on T-47D breast. Also, the TGI is 5.62 µM in the assay with DU-145 prostate; 0.259 µM in the assay on MDA-MB-435; 18.8 µM with NCI/ADR-RES ovarian; 10.2 µM with BT-549 breast; 3.13 µM in the assay with HS 578T breast; 15.3 µM in the assay on T-47D breast.

With `O=S(=O)(/N=c1\scc(-c2ccccc2)n1-c1ccccc1)c1ccc(N2N=C3c4ccccc4CC3C2c2ccc(Cl)cc2)cc1` (configuration not stated), the GI50 with DU-145 prostate is 54.3 µM; in the assay with MDA-MB-435 it was 24.2 µM; in the assay on NCI/ADR-RES ovarian, 51.5 µM; in the assay on BT-549 breast, 41.4 µM; in the assay on HS 578T breast it was 33 µM; in the assay on T-47D breast it was above 100 µM. Also, the TGI with DU-145 prostate, with MDA-MB-435, in the assay on NCI/ADR-RES ovarian, with BT-549 breast, with HS 578T breast and with T-47D breast was above 100 µM in each case.

On to `CC(=O)Nc1ccc(-c2cc(C(=O)O)c3cc4ccccc4cc3n2)cc1`, for which the TGI in the assay on DU-145 prostate, with MDA-MB-435, in the assay with NCI/ADR-RES ovarian, in the assay with BT-549 breast, in the assay on HS 578T breast and with T-47D breast was above 100 µM each time.

With `CC(=O)c1c(O)c(C)c(O)c(Cc2c(O)c3c(c(C(=O)/C=C/c4ccccc4)c2O)OC(C)(C)C=C3)c1O`, the TGI in the assay on DU-145 prostate was 41.1 µM; in the assay with NCI/ADR-RES ovarian, 15.8 µM; with BT-549 breast it was 8.77 µM; in the assay on HS 578T breast it was above 100 µM; in the assay on T-47D breast it was 7.89 µM.

Regarding `COc1cc(C)ccc1C(=O)c1ccc(C)cc1OC`, the GI50 with DU-145 prostate is 3.45 µM; with MDA-MB-435, 0.295 µM; in the assay on NCI/ADR-RES ovarian, 1.31 µM; in the assay with BT-549 breast it was 4.23 µM; with HS 578T breast, 3.45 µM; in the assay on T-47D breast, 4.67 µM. In addition, the TGI in the assay on DU-145 prostate was 83.6 µM; with MDA-MB-435, 1.08 µM; in the assay on NCI/ADR-RES ovarian it was 8.14 µM; with BT-549 breast, above 100 µM; in the assay with HS 578T breast, above 100 µM; with T-47D breast it was above 100 µM.

Consider `CC1=C([Se]CC(OC(=O)CC[Se]c2ccccc2)C(=O)NC(C)(C)C)C(=O)c2ccccc2C1=O` (configuration not stated), for which the GI50 in the assay on DU-145 prostate is 1.97 µM; in the assay with MDA-MB-435 it was 2.21 µM; with NCI/ADR-RES ovarian, 1.63 µM; with BT-549 breast, 1.64 µM; in the assay on T-47D breast, 1.68 µM. In addition, the TGI in the assay with DU-145 prostate was found to be 3.6 µM; with MDA-MB-435, 4.7 µM; in the assay with NCI/ADR-RES ovarian it was 3.18 µM; in the assay on BT-549 breast, 3.15 µM; with T-47D breast, 3.88 µM.

For the compound `O=C(Oc1cccnc1)c1cccnc1Nc1ccnc(C(F)(F)F)c1`, the GI50 with DU-145 prostate is 15 µM; with NCI/ADR-RES ovarian, above 100 µM; in the assay on BT-549 breast, 5.2 µM; in the assay with HS 578T breast it was 32.2 µM; in the assay with T-47D breast, 36.3 µM. Moreover, the TGI in the assay with DU-145 prostate was 42.1 µM; in the assay with NCI/ADR-RES ovarian it was above 100 µM; with BT-549 breast it was above 100 µM; with HS 578T breast it was above 100 µM; with T-47D breast, above 100 µM.

As for `COc1ccc2c(c1)C(=O)/C(=C/c1cccc(OCC(=O)c3ccccc3)c1)CC2`, the GI50 is 32.6 µM in the assay on DU-145 prostate; 2.09 µM in the assay on MDA-MB-435; 5.42 µM in the assay with NCI/ADR-RES ovarian; 27.1 µM with BT-549 breast; 43.7 µM in the assay with HS 578T breast; 7.05 µM in the assay with T-47D breast. The TGI in the assay with DU-145 prostate is above 100 µM; with MDA-MB-435 it was 10.5 µM; in the assay on NCI/ADR-RES ovarian, 93.9 µM; with BT-549 breast, above 100 µM; in the assay on HS 578T breast, above 100 µM; in the assay with T-47D breast it was above 100 µM.

The record behind these values is PubChem BioAssay (NCI).
